The record followed here is patent US6569849B1, “N-Substituted azaheterocyclic compounds” (Novo Nordisk A/S, priority 1996, dated 2003).

Where a name gives a salt, the structure may show the parent alone.

Series [1] relates to histamine induced paw oedema. Put plainly: Histamine induced paw oedema (rat histamine paw oedema test). In kind it is in vivo, male Sprague-Dawley rats. Conditions: 1.0 mg/kg, intraperitoneally 15 minutes before anaesthetics; paw swelling 20 minutes after histamine, water plethysmography. As for the experimental part:
Compounds of formula I may be used to treat all painful, hyperalgesic and/or inflammatory conditions in which C-fibres play a pathophysiological role by eliciting neurogenic pain or inflammation, i.e.: The rat histamine paw oedema test was performed essentially as described by Amann et al. (Europ. J. Pharmacol. 279, 227-231, 1995). In brief 250-300 g male Sprague-Dawley rats were anaesthetized with pentobarbital sodium, and placed on a 32 degree (Celsius) heated table. Ten minutes later histamine (50 micoliter, 3 mg/ml) was injected in the right hind paw and 20 minutes hereafter the paw swelling was determined by water plethysmography (Ugo Basile). Test compounds were administered intraperitoneally at 15 minutes before the anaesthetics. Values for inhibition of histamine induced oedema response for some representative compounds are recorded in table 1.

For orientation: melting point means the temperature, or range, at which the solid turns liquid. Compound `Cl.O=C(O)[C@@H]1CCCN(Cc2ccc(C3c4ccccc4CCc4ccccc43)cc2)C1` registered a melting point of 167 to 175 °C. `CC(CN1c2ccccc2CCc2ccccc21)CN1CCCCC1C(=O)O` (as salt: hydrochloride) (hydrate or solvate) [Example 3, 1-(3-(10,11-Dihydro-5H-dibenzo[b,f]azepin-5-yl)-(2R)-methyl-1-propyl)-(2R)-piperidinecarboxylic Acid Hydrochloride] displayed a melting point of 201 to 216 °C.

Consider `CC(CCN1c2ccccc2CCc2ccccc21)N1CCC[C@@H](C(=O)O)C1.Cl` (stereo partly drawn) (hydrate or solvate), for which the melting point was in the range of 214 to 218 °C. In turn, `CC(CN1c2ccccc2CCc2ccccc21)N1CCC[C@@H](C(=O)O)C1.Cl` (stereo partly drawn) (hydrate or solvate) registered a melting point of 213 to 223 °C.

With `CC(CN1CCC[C@@H](C(=O)O)C1)=C1c2ccccc2CCc2ccccc21.Cl` (hydrate or solvate), the melting point was 151 to 155 °C. The same measure, in the same setting: the result for `CCCC(CN1CCC[C@@H](C(=O)O)C1)CN1c2ccccc2CCc2ccccc21.Cl` (stereo partly drawn) (hydrate or solvate) reads 116 to 120 °C; that for `Cl.O=C(O)[C@@H]1CCCN(CCC(=O)N2c3ccccc3CCc3ccccc32)C1` (hydrate or solvate), 180 to 183 °C; that for `O=C(O)[C@@H]1CCCN(CC#CCN2c3ccccc3CCc3ccccc32)C1` (hydrate or solvate) [Example 10, (R)-1-(4-(10,11-Dihydro-5H-dibenzo[b,f]azepin-5-yl)-2-butyn-1-yl)-3-piperidinecarboxylic Acid], 153 to 154 °C. The compound `CN(CCN1CCC[C@@H](C(=O)O)C1)C1c2ccccc2CCc2ccccc21` (hydrate or solvate) [Example 30, (R)-1-(2-(N-(10,11-dihydro-5H-dibenzo[a,d]cyclohepten-5-yl)-N-methylamino)ethyl)-3-piperidinecarboxylic Acid] yielded a melting point of 187 to 190 °C. Regarding `CC(CN1c2ccccc2CCc2ccccc21)CN1CCCCC1C(=O)O` [Example 3, 1-(3-(10,11-Dihydro-5H-dibenzo[b,f]azepin-5-yl)-(2R)-methyl-1-propyl)-(2R)-piperidinecarboxylic Acid Hydrochloride], in series [1], the “% Oedema inhibition” value is 47%. Still for that read-out and setting: as for `Cl.O=C(O)[C@@H]1CCCN(C/C=C\CN2c3ccccc3CCc3ccccc32)C1` [Example 4, 1-(4-(10,11-Dihydro-5H-dibenzo[b,f]azepin-5-yl)-(2Z)-butenyl)-(3R)-piperidinecarboxylic Acid Hydrochloride], the figure is 26%. Take `O=C(O)[C@@H]1CCCN(C(=O)CC=C2c3ccccc3CCc3ccccc32)C1` [Example 5, 1-(3-(10,11-Dihydro-5H-dibenzo[a,d]cyclohepten-5-ylidene)-1-propionyl)-(3R)-piperidinecarboxylic Acid]: the melting point lay within 71 to 76 °C.
